Results published in patent publication US20260167623A1 (NIKANG THERAPEUTICS, INC., priority 2022, published 2026).
pIC50: −log10 of the molar value.

Molecular target: T1, CDK2 (Homo sapiens, UniProt P24941)
T1 construct: High-Throughput Measurement of Cellular Endogenous CDK2; endogenous in cells; host or cells: OVCAR3
Experiment: Inhibition of CDK2: phospho-Rb (S807/811) HTRF measurement in OVCAR3 cells, 24 h
Format: cell-based
Conditions: 24 h compound treatment, read-out: pRB_OVCAR3_24h
Protocol: Inhibition of CDK2: Phospho-R^b Measurement in Cells
Phosphorylation of RB protein at S807/811 were measured using HTRF phospho-RB cellular kits (Cat #64RBS807PEG) from Cisbio.
On Day 1, OVCAR3 (CDK2 dependent cell line) cells were seeded into 96-well tissue-culture treated plates at 20,000 cells/well in 200 μL and incubated overnight at 37° C. in CO2 atmosphere. On Day 2, the cells were treated with test compounds at concentrations from 0.3 to 10,000 nM using HP D300 digital dispenser. Twenty-four hours after compound treatment, cell culture media is removed by flicking the plate and tapping the plate against clean paper towel. 30 μL 1× lysis buffer was supplemented from the kit was added to each well and the plate was incubated at room temperature on shaker for 30 min. After homogenization by pipetting up and down, 8 μL cell lysate from 96-well cell culture plate was transferred to 384-well small volume white detection plate. 2 μL premixed detection solution was added and the plate was covered with sealer. To prepare the detection solution, d2 conjugated-phospho-RB antibody and Eu-cryptate conjugated phosphor-RB antibody were diluted into detection buffer following manufacturer's instruction. Detection plates were incubated for 4 h at room temperature and read on ClarioStar (BMG Labtech) in TR-FRET mode (665 nM and 620 nM). The TR-FRET ratio (665 nM/620 nM) was plotted against the compound concentration and normalized to DMSO controls. Half maximal inhibition concentration (IC50) values were calculated with a four-parameter logistic fit using GraphPad Prism (version 8; La Jolla, CA).

Row | Compound | pIC50
1 | Cn1nc(N2CCC(=O)NC2=O)c2ccc(N3CC4CC(C3)N4CC3CCN(c4cccc(S(=O)(=O)N5CCC(Nc6ncc(Cl)cn6)CC5)c4)CC3)cc21 [Example 125, 1-(6-(6-((1-(3-((4-((5-chloropyrimidin-2-yl)amino)piperidin-1-yl)sulfonyl)phenyl)-piperidin-4-yl)methyl)-3,6-diazabicyclo-[3.1.1]heptan-3-yl)-1-methyl-1H-indazol-3-yl)dihydropyrimidine-2,4(1H,3H)-dione] | 5.60 to 6.30
2 | C[C@H]1CN(CC2CCN(c3cccc(S(=O)(=O)N4CCC(Nc5ncc(Cl)cn5)CC4)c3)CC2)CCN1c1ccc2c(N3CCC(=O)NC3=O)nn(C)c2c1 [Example 117, (S)-1-(6-(4-((1-(3-((4-((5-chloropyrimidin-2-yl)amino)piperidin-1-yl)sulfonyl)phenyl)-piperidin-4-yl)methyl)-2-methylpiperazin-1-yl)-1-methyl-1H-indazol-3-yl)dihydro-pyrimidine-2,4(1H,3H)-dione] | 6.30 to 7.00
3 | Cn1nc(N2CCC(=O)NC2=O)c2ccc(C3CCN(CC4CCN(S(=O)(=O)[C@H]5CC[C@H](Nc6ncc(C(F)(F)F)cn6)CC5)CC4)CC3)cc21 [Example 20, 1-(1-methyl-6-(1-((1-(((1r,4r)-4-((5-(trifluoromethyl)pyrimidin-2-yl)amino)-cyclohexyl)sulfonyl)piperidin-4-yl)methyl)-piperidin-4-yl)-1H-indazol-3-yl)-dihydropyrimidine-2,4(1H,3H)-dione] | 5.60 to 6.30
4 | O=C1CCC(N2C(=O)c3cc(F)c(N4CCN(Cc5cccc(S(=O)(=O)N6CCC(Nc7ncc(C(F)(F)F)cn7)CC6)c5)CC4)cc3C2=O)C(=O)N1 (stereo not shown) [Example 72, 2-(2,6-dioxopiperidin-3-yl)-5-fluoro-6-(4-(3-((4-((5-(trifluoromethyl)pyrimidin-2-yl)amino)piperidin-1-yl)sulfonyl)benzyl)-piperazin-1-yl)isoindoline-1,3-dione] | 5.60 to 6.30
5 | Cn1nc(N2CCC(=O)NC2=O)c2ccc(C3CN(Cc4cccc(S(=O)(=O)N5CCC(Nc6ncc(Cl)cn6)CC5)c4)C3)cc21 [Example 56, 1-(6-(1-(3-((4-((5-chloropyrimidin-2-yl)amino)piperidin-1-yl)sulfonyl)benzyl)-azetidin-3-yl)-1-methyl-1H-indazol-3-yl)dihydropyrimidine-2,4(1H,3H)-dione] | 5.60 to 6.30
6 | Cn1nc(N2CCC(=O)NC2=O)c2ccc(C3CCN(Cc4cccc(S(=O)(=O)[C@H]5CC[C@H](Nc6ncc(Cl)cn6)CC5)c4)CC3)cc21 [Example 59, 1-(6-(1-(3-(((1r,4r)-4-((5-chloropyrimidin-2-yl)amino)cyclohexyl)sulfonyl)benzyl)piperidin-4-yl)-1-methyl-1H-indazol-3-yl)dihydropyrimidine-2,4(1H,3H)-dione] | < 5.60
7 | Cn1nc(N2CCC(=O)NC2=O)c2ccc(C3CCN(C(c4cccc(S(=O)(=O)N5CCC(Nc6ncc(Cl)cn6)CC5)c4)C(F)F)CC3)cc21 (stereo not shown) [Example 30, 1-(6-(1-(1-(3-((4-((5-chloropyrimidin-2-yl)amino)piperidin-1-yl)sulfonyl)phenyl)-2,2-difluoroethyl)piperidin-4-yl)-1-methyl-1H-indazol-3-yl)dihydropyrimidine-2,4(1H,3H)-dione] | 5.60 to 6.30
8 | Cn1nc(N2CCC(=O)NC2=O)c2ccc(C3CCN(CCOc4cccc(S(=O)(=O)N5CCC(Nc6ncc(Cl)cn6)CC5)c4)CC3)cc21 [Example 124, 1-(6-(1-(2-(3-((4-((5-chloropyrimidin-2-yl)amino)piperidin-1-yl)sulfonyl)phenoxy)-ethyl)piperidin-4-yl)-1-methyl-1H-indazol-3-yl)dihydropyrimidine-2,4(1H,3H)-dione] | 7.00 to 9.00

Continued, values first:

Row | pIC50 | Compound
9 | 7.00 to 9.00 | Cn1nc(N2CCC(=O)NC2=O)c2ccc(C3CCN(CC4CC5(C4)CN(c4cccc(S(=O)(=O)N6CCC(Nc7ncc(Cl)cn7)CC6)c4)C5)CC3)cc21 [Example 132, 1-(6-(1-((2-(3-((4-((5-chloropyrimidin-2-yl)amino)piperidin-1-yl)sulfonyl)phenyl)-2-azaspiro[3.3]heptan-6-yl)methyl)piperidin-4-yl)-1-methyl-1H-indazol-3-yl)dihydropyrimidine-2,4(1H,3H)-dione]
10 | 5.60 to 6.30 | N#Cc1ccc(S(=O)(=O)N2CCC(Nc3ncc(Cl)cn3)CC2)cc1N1CCC(CN2CCN(c3cc4c(cc3F)C(=O)N(C3CCC(=O)NC3=O)C4=O)CC2)CC1 (stereo not shown) [Example 185, 4-((4-((5-chloropyrimidin-2-yl)amino)piperidin-1-yl)sulfonyl)-2-(4-((4-(2-(2,6-dioxopiperidin-3-yl)-6-fluoro-1,3-dioxoisoindolin-5-yl)piperazin-1-yl)methyl)piperidin-1-yl)benzonitrile]
11 | 6.30 to 7.00 | O=C1CCN(c2cccc(C3CCN(CC4CCN(c5cccc(S(=O)(=O)N6CCC(Nc7ncc(Cl)cn7)CC6)c5)CC4)CC3)c2)C(=O)N1 [Example 182, 1-(3-(1-((1-(3-((4-((5-chloropyrimidin-2-yl)amino)piperidin-1-yl)sulfonyl)phenyl)piperidin-4-yl)methyl)piperidin-4-yl)phenyl) dihydropyrimidine-2,4(1H,3H)-dione]
12 | 7.00 to 9.00 | Cn1nc(N2CCC(=O)NC2=O)c2ccc(C3CCN(CC4CCN(c5cc(S(=O)(=O)N6CCC(Nc7ncc(Cl)cn7)CC6)ccc5F)CC4)CC3)cc21 [Example 140, 1-(6-(1-((1-(5-((4-((5-chloropyrimidin-2-yl)amino)piperidin-1-yl)sulfonyl)-2-fluorophenyl)piperidin-4-yl)methyl)-piperidin-4-yl)-1-methyl-1H-indazol-3-yl)dihydropyrimidine-2,4(1H,3H)-dione]
13 | < 5.60 | Cn1nc(N2CCC(=O)NC2=O)c2ccc(C3CCN(Cc4cccc(S(=O)(=O)N5CC(Nc6ncc(C(F)(F)F)cn6)C5)c4)CC3)cc21 [Example 154, 1-(1-methyl-6-(1-(3-((3-((5-(trifluoromethyl)pyrimidin-2-yl)amino)azetidin-1-yl)sulfonyl)benzyl)piperidin-4-yl)-1H-indazol-3-yl)dihydropyrimidine-2,4(1H,3H)-dione]
14 | 6.30 to 7.00 | Cn1nc(N2CCC(=O)NC2=O)c2ccc(C3=CCN(CC4CCN(c5cccc(S(=O)(=O)N6CCC(Nc7ncc(Cl)cn7)CC6)c5)CC4)CC3)cc21 [Example 134, 1-(6-(1-((1-(3-((4-((5-chloropyrimidin-2-yl)amino)piperidin-1-yl)sulfonyl)phenyl)-piperidin-4-yl)methyl)-1,2,3,6-tetrahydropyridin-4-yl)-1-methyl-1H-indazol-3-yl)dihydropyrimidine-2,4(1H,3H)-dione]
15 | 5.60 to 6.30 | Cn1nc(N2CCC(=O)NC2=O)c2ccc(C3CCN(CC4CCN(c5cccc(S(=O)(=O)N6CCC(Nc7ncc(CC(F)(F)F)cn7)CC6)c5)CC4)CC3)cc21 [Example 243, 1-(1-methyl-6-(1-((1-(3-((4-((5-(2,2,2-trifluoroethyl)pyrimidin-2-yl)amino)piperidin-1-yl)sulfonyl)phenyl)piperidin-4-yl)methyl)piperidin-4-yl)-1H-indazol-3-yl)dihydropyrimidine-2,4(1H,3H)-dione]
16 | 6.30 to 7.00 | Cn1nc(N2CCC(=O)NC2=O)c2ccc(CCCN3CCN(c4cccc(S(=O)(=O)N5CCC(Nc6ncc(C(F)(F)F)cn6)CC5)c4)CC3)cc21 [Example 235, 1-(1-methyl-6-(3-(4-(3-((4-((5-(trifluoromethyl)pyrimidin-2-yl)amino)piperidin-1-yl)sulfonyl)phenyl)piperazin-1-yl)propyl)-1H-indazol-3-yl)dihydropyrimidine-2,4(1H,3H)-dione]
17 | 6.30 to 7.00 | Cn1nc(-n2ccc(=O)[nH]c2=O)c2ccc(C3CCN(CC4CCN(c5cccc(S(=O)(=O)N6CCC(Nc7ncc(Cl)cn7)CC6)c5)CC4)CC3)cc21 [Example 210, 1-(6-(1-((1-(3-((4-((5-chloropyrimidin-2-yl)amino)piperidin-1-yl)sulfonyl)phenyl)piperidin-4-yl)methyl)piperidin-4-yl)-1-methyl-1H-indazol-3-yl)pyrimidine-2,4(1H,3H)-dione]
18 | 7.00 to 9.00 | Cn1nc(N2CCC(=O)NC2=O)c2ccc(C3CCN(Cc4cnn(-c5cccc(S(=O)(=O)N6CCC(Nc7ncc(Cl)cn7)CC6)c5)c4)CC3)cc21 [Example 131, 1-(6-(1-((1-(3-((4-((5-chloropyrimidin-2-yl)amino)piperidin-1-yl)sulfonyl)phenyl)-1H-pyrazol-4-yl)methyl)piperidin-4-yl)-1-methyl-1H-indazol-3-yl)dihydropyrimidine-2,4(1H,3H)-dione]
19 | 5.60 to 6.30 | Cn1c(=O)n(C2CCC(=O)NC2=O)c2cccc(C3CCN(CC4CCN(c5cc(C(F)(F)F)cc(S(=O)(=O)N6CCC(Nc7ncc(OC(F)F)cn7)CC6)c5)CC4)CC3)c21 (stereo not shown) [Example 176, 3-(4-(1-((1-(3-((4-((5-(difluoromethoxy)pyrimidin-2-yl)amino)piperidin-1-yl)sulfonyl)-5-(trifluoromethyl)phenyl)piperidin-4-yl)methyl)piperidin-4-yl)-3-methyl-2-oxo-2,3-dihydro-1H-benzo[d]imidazol-1-yl)piperidine-2,6-dione]
